Laboratory results: the NIST ThermoML archive (doi:10.1021/je900725w)

Assays:
[1] = 308.15 K, 101.33 kPa, Liquid
[2] = wn = mass fraction of the nth substance listed; details: 101 kPa, Liquid; for viscosity: Capillary tube (Ostwald / Ubbelohde) method; for mass density: Vibrating tube method
[3] = relative permittivity at zero frequency (dimensionless); wn = mass fraction of the nth substance listed; details: 101 kPa, Liquid, Parallel plate capacitor

CCOCCO [2-ethoxyethan-1-ol]
Details | mass density [kg/m3]
[1] | 924.97

Details | viscosity [mPa·s]
[1], Capillary tube (Ostwald / Ubbelohde) method | 1.828

CCOCCO [2-ethoxyethan-1-ol] + O
Details | mass density, w1 = 0.25 [kg/m3] | mass density, w1 = 0.4 [kg/m3] | mass density, w1 = 0.5 [kg/m3] | relative permittivity at zero frequency, w1 = 0.25 | relative permittivity at zero frequency, w1 = 0.4 | relative permittivity at zero frequency, w1 = 0.5 | viscosity, w1 = 0.25 [mPa·s] | viscosity, w1 = 0.4 [mPa·s] | viscosity, w1 = 0.5 [mPa·s]
[2], 308.15 K | 997.58 | 997.47 | 993.61 | – | – | – | 1.843 | 1.955 | 1.923
[2], 313.15 K | 992.45 | 991.01 | 985.14 | – | – | – | 1.529 | 1.702 | 1.72
[2], 318.15 K | 988.07 | 986.96 | 980.04 | – | – | – | 1.274 | 1.427 | 1.455
[2], 323.15 K | 983.94 | 983.78 | 976.1 | – | – | – | 1.092 | 1.232 | 1.276
[3], 308.15 K | – | – | – | 60.13 | 50.54 | 44.3 | – | – | –
[3], 313.15 K | – | – | – | 58.7 | 49.28 | 43.03 | – | – | –
[3], 318.15 K | – | – | – | 57.37 | 48.14 | 41.95 | – | – | –
[3], 323.15 K | – | – | – | 56.11 | 47.1 | 40.96 | – | – | –
